Experiments:
Experiment in all cases: biochemical
Format in all cases: binding
panel of 442 kinases [1] = target: T1, panel of 442 kinases (Homo sapiens, UniProt Q8TDC3); settings: BRSK1; for remaining activity at 1 µM: read-out: % of control at 1 µM
T1 construct: purchased Ambit Biosciences (scanMAXX KINOMEscan)
T1 sequence (Q8TDC3 1-778): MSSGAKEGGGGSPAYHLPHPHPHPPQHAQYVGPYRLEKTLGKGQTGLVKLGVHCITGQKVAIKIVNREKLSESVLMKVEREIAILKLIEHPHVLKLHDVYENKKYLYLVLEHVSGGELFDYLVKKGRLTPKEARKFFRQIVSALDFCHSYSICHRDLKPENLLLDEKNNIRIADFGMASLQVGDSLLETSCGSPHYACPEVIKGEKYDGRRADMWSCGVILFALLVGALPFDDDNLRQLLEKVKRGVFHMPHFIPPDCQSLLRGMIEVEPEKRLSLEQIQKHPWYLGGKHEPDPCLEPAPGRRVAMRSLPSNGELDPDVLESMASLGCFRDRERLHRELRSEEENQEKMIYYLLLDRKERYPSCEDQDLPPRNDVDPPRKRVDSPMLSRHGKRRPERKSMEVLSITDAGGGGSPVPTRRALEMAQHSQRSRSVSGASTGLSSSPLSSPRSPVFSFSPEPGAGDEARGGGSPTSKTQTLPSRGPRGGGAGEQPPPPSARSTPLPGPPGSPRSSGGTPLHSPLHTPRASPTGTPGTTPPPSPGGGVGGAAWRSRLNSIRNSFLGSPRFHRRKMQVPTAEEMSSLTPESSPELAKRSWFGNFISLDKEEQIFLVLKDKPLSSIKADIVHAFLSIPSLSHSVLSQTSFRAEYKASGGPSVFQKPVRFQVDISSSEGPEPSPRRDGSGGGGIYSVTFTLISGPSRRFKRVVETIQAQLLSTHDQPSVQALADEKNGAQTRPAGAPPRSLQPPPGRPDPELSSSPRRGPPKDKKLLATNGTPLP

panel of 442 kinases [2] = target: T2, panel of 442 kinases (Homo sapiens, UniProt Q07912); settings: kinase TNK2; for remaining activity at 1 µM: read-out: TNK2 (% of control at 1 µM)
T2 construct: purchased Ambit Biosciences (scanMAXX KINOMEscan)

panel of 442 kinases [3] = target: T3, panel of 442 kinases (Homo sapiens, UniProt O14976); settings: kinase GAK; for remaining activity at 1 µM: read-out: % of control at 1 µM
T3 construct: purchased Ambit Biosciences (scanMAXX KINOMEscan)
T3 sequence (O14976 1-1311): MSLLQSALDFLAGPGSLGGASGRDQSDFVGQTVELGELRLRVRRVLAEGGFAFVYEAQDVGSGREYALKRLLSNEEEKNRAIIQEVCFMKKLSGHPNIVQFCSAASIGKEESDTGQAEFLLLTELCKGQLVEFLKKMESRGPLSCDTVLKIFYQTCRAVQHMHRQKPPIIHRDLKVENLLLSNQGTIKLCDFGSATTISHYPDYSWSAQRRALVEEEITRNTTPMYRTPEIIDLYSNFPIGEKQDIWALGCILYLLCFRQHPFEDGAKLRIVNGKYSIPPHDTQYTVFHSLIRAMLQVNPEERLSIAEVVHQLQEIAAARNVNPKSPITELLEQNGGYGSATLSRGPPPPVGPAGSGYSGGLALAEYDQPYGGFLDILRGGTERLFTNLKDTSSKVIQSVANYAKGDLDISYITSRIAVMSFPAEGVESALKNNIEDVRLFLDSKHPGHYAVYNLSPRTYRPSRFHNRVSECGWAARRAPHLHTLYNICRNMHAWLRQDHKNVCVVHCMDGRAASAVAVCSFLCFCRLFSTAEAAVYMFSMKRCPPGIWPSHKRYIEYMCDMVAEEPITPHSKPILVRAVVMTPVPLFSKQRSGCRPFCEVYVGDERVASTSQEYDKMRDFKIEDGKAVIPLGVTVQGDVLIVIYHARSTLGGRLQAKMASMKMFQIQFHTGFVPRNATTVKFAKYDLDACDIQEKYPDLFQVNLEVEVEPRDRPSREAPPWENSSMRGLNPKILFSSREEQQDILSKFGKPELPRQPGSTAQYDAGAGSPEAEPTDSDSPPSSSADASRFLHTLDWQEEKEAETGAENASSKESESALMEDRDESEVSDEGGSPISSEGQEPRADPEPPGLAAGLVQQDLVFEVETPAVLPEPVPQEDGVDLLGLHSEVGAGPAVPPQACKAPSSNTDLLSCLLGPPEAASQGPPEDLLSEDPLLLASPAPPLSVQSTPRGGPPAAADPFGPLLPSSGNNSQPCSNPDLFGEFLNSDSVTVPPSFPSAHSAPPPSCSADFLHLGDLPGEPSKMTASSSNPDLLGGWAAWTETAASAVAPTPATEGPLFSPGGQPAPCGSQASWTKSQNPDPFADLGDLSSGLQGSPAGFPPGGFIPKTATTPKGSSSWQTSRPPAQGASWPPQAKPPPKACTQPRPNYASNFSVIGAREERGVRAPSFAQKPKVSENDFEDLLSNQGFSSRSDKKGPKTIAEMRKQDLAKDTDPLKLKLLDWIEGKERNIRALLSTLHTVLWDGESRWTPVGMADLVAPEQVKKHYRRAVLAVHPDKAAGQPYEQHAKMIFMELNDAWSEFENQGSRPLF

panel of 442 kinases [4] = target: T4, panel of 442 kinases (Homo sapiens, UniProt Q9NQU5); settings: kinase PAK6; for remaining activity at 1 µM: read-out: % of control at 1 µM
T4 construct: purchased Ambit Biosciences (scanMAXX KINOMEscan)
T4 sequence (Q9NQU5 whole entry): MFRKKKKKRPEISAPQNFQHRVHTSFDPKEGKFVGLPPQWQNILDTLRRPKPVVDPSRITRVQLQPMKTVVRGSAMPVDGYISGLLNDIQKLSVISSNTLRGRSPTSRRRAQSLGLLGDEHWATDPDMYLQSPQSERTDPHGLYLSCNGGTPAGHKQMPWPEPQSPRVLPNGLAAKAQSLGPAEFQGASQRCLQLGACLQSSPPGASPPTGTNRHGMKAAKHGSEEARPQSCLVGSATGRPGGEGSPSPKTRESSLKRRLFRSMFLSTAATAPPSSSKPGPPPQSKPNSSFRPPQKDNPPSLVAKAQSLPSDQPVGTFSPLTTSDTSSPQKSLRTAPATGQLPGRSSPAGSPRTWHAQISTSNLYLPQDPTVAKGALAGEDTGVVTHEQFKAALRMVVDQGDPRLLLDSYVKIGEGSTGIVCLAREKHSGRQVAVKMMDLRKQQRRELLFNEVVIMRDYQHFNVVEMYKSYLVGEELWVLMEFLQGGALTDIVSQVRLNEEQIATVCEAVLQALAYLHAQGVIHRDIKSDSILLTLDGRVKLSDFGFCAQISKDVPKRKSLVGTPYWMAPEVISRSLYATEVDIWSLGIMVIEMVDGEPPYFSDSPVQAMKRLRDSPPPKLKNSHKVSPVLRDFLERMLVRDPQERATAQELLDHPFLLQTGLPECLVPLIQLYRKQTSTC

panel of 442 kinases [5] = target: T5, panel of 442 kinases (Homo sapiens, UniProt P22607); settings: FGFR3; for remaining activity at 1 µM: read-out: % of control at 1 µM
T5 construct: purchased Ambit Biosciences (scanMAXX KINOMEscan)
T5 sequence (P22607 23-806): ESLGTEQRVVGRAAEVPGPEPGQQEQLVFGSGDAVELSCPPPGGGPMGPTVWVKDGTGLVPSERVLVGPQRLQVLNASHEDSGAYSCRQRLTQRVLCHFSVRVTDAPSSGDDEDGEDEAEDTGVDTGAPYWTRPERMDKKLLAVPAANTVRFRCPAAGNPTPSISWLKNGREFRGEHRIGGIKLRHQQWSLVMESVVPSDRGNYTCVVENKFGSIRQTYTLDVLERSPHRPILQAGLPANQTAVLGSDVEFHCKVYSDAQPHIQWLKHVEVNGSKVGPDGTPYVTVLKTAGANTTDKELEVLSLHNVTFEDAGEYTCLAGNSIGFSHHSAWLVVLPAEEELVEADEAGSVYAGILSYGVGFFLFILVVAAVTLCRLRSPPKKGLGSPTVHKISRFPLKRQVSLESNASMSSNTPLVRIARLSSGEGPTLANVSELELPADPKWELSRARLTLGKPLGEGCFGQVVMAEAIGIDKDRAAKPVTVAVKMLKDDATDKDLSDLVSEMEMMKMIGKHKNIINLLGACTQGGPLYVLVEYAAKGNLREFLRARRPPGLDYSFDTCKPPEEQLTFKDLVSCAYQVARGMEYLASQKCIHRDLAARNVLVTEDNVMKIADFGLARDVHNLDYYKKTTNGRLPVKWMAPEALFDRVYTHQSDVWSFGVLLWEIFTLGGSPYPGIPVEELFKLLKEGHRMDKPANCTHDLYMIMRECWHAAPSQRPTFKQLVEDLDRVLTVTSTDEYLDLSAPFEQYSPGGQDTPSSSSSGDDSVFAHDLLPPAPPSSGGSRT

panel of 442 kinases [6] = target: T6, panel of 442 kinases (Homo sapiens, UniProt O15075); settings: DCAMKL1; for remaining activity at 1 µM: read-out: % of control at 1 µM
T6 construct: purchased Ambit Biosciences (scanMAXX KINOMEscan)
T6 sequence (O15075 whole entry): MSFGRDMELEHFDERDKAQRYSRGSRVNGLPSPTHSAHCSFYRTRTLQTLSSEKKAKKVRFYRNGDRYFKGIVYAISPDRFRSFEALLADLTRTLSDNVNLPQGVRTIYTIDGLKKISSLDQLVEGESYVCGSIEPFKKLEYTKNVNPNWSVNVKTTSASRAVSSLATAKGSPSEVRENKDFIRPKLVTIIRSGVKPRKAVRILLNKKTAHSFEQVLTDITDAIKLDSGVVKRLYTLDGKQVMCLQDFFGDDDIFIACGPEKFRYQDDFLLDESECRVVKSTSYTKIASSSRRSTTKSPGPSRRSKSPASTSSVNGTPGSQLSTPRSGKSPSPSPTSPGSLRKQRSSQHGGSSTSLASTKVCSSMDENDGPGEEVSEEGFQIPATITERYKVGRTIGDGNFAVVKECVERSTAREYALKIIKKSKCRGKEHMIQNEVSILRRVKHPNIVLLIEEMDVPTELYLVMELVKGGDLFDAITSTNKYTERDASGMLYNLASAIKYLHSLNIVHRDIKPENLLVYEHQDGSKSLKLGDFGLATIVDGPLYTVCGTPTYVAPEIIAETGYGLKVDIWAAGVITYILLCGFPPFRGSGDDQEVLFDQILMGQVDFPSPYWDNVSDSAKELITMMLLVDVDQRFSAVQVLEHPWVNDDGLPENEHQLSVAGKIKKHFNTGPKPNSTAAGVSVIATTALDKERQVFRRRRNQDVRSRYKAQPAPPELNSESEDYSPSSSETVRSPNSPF

panel of 442 kinases [7] = target: T7, panel of 442 kinases (Homo sapiens, UniProt P80192); settings: kinase MLK1; for remaining activity at 1 µM: read-out: % of control at 1 µM
T7 construct: purchased Ambit Biosciences (scanMAXX KINOMEscan)

panel of 442 kinases [8] = target: T8, panel of 442 kinases (Homo sapiens, UniProt P27448); settings: kinase MARK3; for remaining activity at 1 µM: read-out: % of control at 1 µM
T8 construct: purchased Ambit Biosciences (scanMAXX KINOMEscan)
T8 sequence (P27448 whole entry): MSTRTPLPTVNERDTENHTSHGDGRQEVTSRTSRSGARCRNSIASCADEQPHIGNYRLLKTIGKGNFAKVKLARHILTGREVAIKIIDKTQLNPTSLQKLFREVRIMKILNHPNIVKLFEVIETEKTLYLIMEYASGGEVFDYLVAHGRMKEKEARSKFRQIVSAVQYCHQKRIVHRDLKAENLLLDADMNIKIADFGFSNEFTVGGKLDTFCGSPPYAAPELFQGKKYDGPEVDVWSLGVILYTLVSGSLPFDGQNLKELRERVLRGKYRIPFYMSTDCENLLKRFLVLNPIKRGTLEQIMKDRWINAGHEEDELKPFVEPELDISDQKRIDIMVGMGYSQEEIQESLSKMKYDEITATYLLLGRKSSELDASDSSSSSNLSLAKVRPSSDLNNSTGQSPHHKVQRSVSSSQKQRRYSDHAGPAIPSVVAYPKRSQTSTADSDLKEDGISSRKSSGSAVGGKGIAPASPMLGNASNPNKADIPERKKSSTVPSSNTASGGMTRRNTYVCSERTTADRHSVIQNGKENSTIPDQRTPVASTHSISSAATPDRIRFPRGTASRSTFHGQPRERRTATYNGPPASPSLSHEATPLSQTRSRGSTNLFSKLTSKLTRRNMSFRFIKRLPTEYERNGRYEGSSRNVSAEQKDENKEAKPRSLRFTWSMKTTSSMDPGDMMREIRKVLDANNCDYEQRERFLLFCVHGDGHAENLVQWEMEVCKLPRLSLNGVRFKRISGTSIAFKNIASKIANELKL

panel of 442 kinases [9] = target: T9, panel of 442 kinases (Homo sapiens, UniProt Q86V86); settings: kinase PIM3; for remaining activity at 1 µM: read-out: % of control at 1 µM
T9 construct: purchased Ambit Biosciences (scanMAXX KINOMEscan)

panel of 442 kinases [10] = target: T10, panel of 442 kinases (Homo sapiens, UniProt P32298); settings: kinase GRK4; for remaining activity at 1 µM: read-out: % of control at 1 µM
T10 construct: purchased Ambit Biosciences (scanMAXX KINOMEscan)
T10 sequence (P32298 whole entry): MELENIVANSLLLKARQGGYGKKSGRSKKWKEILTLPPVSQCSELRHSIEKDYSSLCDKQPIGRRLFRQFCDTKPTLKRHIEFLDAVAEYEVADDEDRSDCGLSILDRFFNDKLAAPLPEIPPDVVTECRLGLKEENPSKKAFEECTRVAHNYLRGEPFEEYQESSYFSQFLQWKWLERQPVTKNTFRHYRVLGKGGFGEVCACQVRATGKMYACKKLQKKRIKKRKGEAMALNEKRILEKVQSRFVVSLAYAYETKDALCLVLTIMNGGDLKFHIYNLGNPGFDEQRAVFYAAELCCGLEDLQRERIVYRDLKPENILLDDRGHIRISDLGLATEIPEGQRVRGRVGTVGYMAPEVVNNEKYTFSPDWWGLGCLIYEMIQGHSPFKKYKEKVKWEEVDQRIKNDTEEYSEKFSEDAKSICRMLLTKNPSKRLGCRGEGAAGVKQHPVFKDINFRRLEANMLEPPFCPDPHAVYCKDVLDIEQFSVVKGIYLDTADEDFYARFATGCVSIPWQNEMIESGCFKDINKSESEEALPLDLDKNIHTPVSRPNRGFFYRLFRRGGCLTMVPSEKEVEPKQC

panel of 442 kinases [11] = target: T11, panel of 442 kinases (Homo sapiens, UniProt Q14012); settings: CAMK1; for remaining activity at 1 µM: read-out: % of control at 1 µM
T11 construct: purchased Ambit Biosciences (scanMAXX KINOMEscan)
T11 sequence (Q14012 whole entry): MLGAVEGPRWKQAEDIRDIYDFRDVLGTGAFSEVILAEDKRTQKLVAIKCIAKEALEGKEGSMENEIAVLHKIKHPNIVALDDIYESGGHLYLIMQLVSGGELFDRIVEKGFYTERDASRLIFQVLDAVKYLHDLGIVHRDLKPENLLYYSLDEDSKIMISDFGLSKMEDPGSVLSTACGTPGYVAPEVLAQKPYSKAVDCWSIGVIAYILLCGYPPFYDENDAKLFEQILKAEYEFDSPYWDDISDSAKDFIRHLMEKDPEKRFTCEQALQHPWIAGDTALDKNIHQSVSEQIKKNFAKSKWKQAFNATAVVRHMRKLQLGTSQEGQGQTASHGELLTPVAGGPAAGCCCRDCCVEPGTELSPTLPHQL

[12] = 10 µM, read-out: % of control at 10 µM

Nc1cc(C(F)(F)F)c(-c2cc(N3CCOCC3)nc(N3CCOCC3)n2)cn1 [Buparlisib]
remaining activity at 1 µM (panel of 442 kinases [1]): 100% | remaining activity at 10 µM (panel of 442 kinases [1]; [12]): 100% | remaining activity at 1 µM (panel of 442 kinases [2]): 100% | remaining activity at 10 µM (panel of 442 kinases [2]; 10 µM, read-out: TNK2 (% of control at 10 µM)): 100% | remaining activity at 1 µM (panel of 442 kinases [3]): 100% | remaining activity at 10 µM (panel of 442 kinases [3]; [12]): 100% | remaining activity at 1 µM (panel of 442 kinases [4]): 96% | remaining activity at 10 µM (panel of 442 kinases [4]; [12]): 100% | remaining activity at 1 µM (panel of 442 kinases [5]): 100% | remaining activity at 10 µM (panel of 442 kinases [5]; [12]): 100% | remaining activity at 1 µM (panel of 442 kinases [6]): 100% | remaining activity at 10 µM (panel of 442 kinases [6]; [12]): 92% | remaining activity at 1 µM (panel of 442 kinases [7]): 92% | remaining activity at 10 µM (panel of 442 kinases [7]; [12]): 99% | remaining activity at 1 µM (panel of 442 kinases [8]): 97% | remaining activity at 10 µM (panel of 442 kinases [8]; [12]): 100% | remaining activity at 1 µM (panel of 442 kinases [9]): 100% | remaining activity at 10 µM (panel of 442 kinases [9]; [12]): 93% | remaining activity at 1 µM (panel of 442 kinases [10]): 100% | remaining activity at 10 µM (panel of 442 kinases [10]; [12]): 100% | remaining activity at 1 µM (panel of 442 kinases [11]): 100% | remaining activity at 10 µM (panel of 442 kinases [11]; [12]): 100%

Cn1c(=O)n(-c2ccc(C(C)(C)C#N)cc2)c2c3cc(-c4cnc5ccccc5c4)ccc3ncc21 [Dactolisib, 2-methyl-2-[4-(3-methyl-2-oxo-8-quinolin-3-yl-2,3-dihydroimidazo[4,5-c]quinolin-1-yl)-phenyl] propionitrile]
remaining activity at 1 µM (panel of 442 kinases [1]): 83% | remaining activity at 1 µM (panel of 442 kinases [2]): 98% | remaining activity at 1 µM (panel of 442 kinases [3]): 60% | remaining activity at 1 µM (panel of 442 kinases [4]): 92% | remaining activity at 1 µM (panel of 442 kinases [5]): 100% | remaining activity at 1 µM (panel of 442 kinases [6]): 100% | remaining activity at 1 µM (panel of 442 kinases [7]): 86% | remaining activity at 1 µM (panel of 442 kinases [8]): 100% | remaining activity at 1 µM (panel of 442 kinases [9]): 100% | remaining activity at 1 µM (panel of 442 kinases [10]): 97% | remaining activity at 1 µM (panel of 442 kinases [11]): 78%

COc1ncc(-c2ccc3nccc(-c4ccnnc4)c3c2)cc1NS(=O)(=O)c1ccc(F)cc1F [Omipalisib]
remaining activity at 1 µM (panel of 442 kinases [1]): 100% | remaining activity at 1 µM (panel of 442 kinases [2]): 100% | remaining activity at 1 µM (panel of 442 kinases [3]): 61% | remaining activity at 1 µM (panel of 442 kinases [4]): 100% | remaining activity at 1 µM (panel of 442 kinases [5]): 87% | remaining activity at 1 µM (panel of 442 kinases [6]): 92% | remaining activity at 1 µM (panel of 442 kinases [7]): 100% | remaining activity at 1 µM (panel of 442 kinases [8]): 100% | remaining activity at 1 µM (panel of 442 kinases [9]): 86% | remaining activity at 1 µM (panel of 442 kinases [10]): 100% | remaining activity at 1 µM (panel of 442 kinases [11]): 100%

FC(F)c1nc2ccccc2n1-c1nc(N2CCOCC2)nc(N2CCOCC2)n1 [ZSTK474, 2-(difluoromethyl)-1-[4,6-di(4-morpholinyl)-1,3,5-triazin-2-yl]-1H-benzimidazole]
remaining activity at 1 µM (panel of 442 kinases [1]): 98% | remaining activity at 1 µM (panel of 442 kinases [2]): 100% | remaining activity at 1 µM (panel of 442 kinases [3]): 78% | remaining activity at 1 µM (panel of 442 kinases [4]): 100% | remaining activity at 1 µM (panel of 442 kinases [5]): 100% | remaining activity at 1 µM (panel of 442 kinases [6]): 97% | remaining activity at 1 µM (panel of 442 kinases [7]): 99% | remaining activity at 1 µM (panel of 442 kinases [8]): 100% | remaining activity at 1 µM (panel of 442 kinases [9]): 95% | remaining activity at 1 µM (panel of 442 kinases [10]): 100% | remaining activity at 1 µM (panel of 442 kinases [11]): 100%

Reference: paper PMC5564600 (Oncotarget, 2017)
